For 6 compounds, EC50 and IC50 results are on record in ChEMBL document CHEMBL1201862, “PubChem BioAssay data set” (2004).

For test [1], the target named is T1, Corticotropin-releasing factor receptor 2/Corticotropin-releasing factor-binding protein (Homo sapiens, UniProt P24387+Q13324).
T1 sequence (Q13324 whole entry): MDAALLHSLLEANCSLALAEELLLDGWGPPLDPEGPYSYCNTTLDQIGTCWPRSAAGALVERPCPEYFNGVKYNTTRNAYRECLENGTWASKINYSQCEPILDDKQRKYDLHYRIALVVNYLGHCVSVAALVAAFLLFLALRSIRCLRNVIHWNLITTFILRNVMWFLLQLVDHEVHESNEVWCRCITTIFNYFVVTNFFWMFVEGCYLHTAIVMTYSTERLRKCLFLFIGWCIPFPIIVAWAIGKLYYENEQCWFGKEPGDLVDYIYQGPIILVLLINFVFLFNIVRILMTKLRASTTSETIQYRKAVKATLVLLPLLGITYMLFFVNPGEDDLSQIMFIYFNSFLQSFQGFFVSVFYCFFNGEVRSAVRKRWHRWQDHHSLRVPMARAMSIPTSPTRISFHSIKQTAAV
T1 sequence (P24387 whole entry): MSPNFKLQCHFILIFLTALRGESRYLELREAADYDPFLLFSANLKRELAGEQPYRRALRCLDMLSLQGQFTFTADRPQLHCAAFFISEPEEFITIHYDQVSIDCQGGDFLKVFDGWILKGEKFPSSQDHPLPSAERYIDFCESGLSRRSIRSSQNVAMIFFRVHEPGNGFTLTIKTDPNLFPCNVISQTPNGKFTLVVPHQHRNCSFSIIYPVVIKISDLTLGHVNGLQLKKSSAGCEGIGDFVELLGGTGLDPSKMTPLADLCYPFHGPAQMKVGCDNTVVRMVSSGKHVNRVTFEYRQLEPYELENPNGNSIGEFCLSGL
Nature of the test: activators of CRF receptor 2 with binding protein – uHTS hits, confirmation (AID 602473). It counts as functional. To be noted: read-out: EC50_Mean.

Test [2] has as its target T1, Corticotropin-releasing factor receptor 2/Corticotropin-releasing factor-binding protein. Kind of test: Dose Response confirmation of uHTS hits for small molecule antagonists of the CRF-binding protein and CRF-R2 receptor complex. To be noted: read-out: IC50_Mean. It counts as functional.
Test [3] can be described thus: CRF-BP/CRF-R2 complex antagonists, dose response, cell-based, uHTS hits, 384-well (AID 651639). It counts as functional, Homo sapiens. To be noted: read-out: IC50_Mean.
For a further test, the target named is Steroidogenic factor 1 (Homo sapiens, UniProt Q13285). Nature of the test: Counterscreen for inverse agonists of the liver receptor homolog-1 (LRH-1; NR5A2): Luminescence-based cell-based high throughput dose response assay to identify inverse agonists of the Steroidogenic Factor 1 Nuclear Receptor (SF1; NR5A1). In kind it is functional. On the technique in general: A counterscreen serves to expose hits that act by an unwanted route or on another target.

A short description of test [4]: StAR promoter reporter inhibition counter-screen, dose response, counter-screen for LRH-1 inverse agonist project, cell-based, luminescence, luciferase reporter (AID 651969). It counts as functional.
For test [5], the target named is Nuclear receptor subfamily 5 group A member 2 (Homo sapiens, UniProt O00482). It counts as functional, cell-based.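 Further: HEK293T cells transfected with LRH-1 and a StAR promoter luciferase reporter; potency for inhibitors that lower LRH-1 driven reporter light.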
Test [6] concerns the target T2, Sentrin-specific protease 8 (Homo sapiens, UniProt Q96LD8).
T2 sequence (Q96LD8 whole entry): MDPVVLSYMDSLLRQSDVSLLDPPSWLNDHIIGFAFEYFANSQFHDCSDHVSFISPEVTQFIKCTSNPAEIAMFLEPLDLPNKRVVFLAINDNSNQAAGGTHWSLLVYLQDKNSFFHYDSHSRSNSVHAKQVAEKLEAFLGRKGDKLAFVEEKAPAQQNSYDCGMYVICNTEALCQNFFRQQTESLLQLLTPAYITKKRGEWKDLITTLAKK
In kind it is functional.

Test [7] concerns the target T2, Sentrin-specific protease 8. In kind it is functional. This is another data set of the same source.
Test [8] has as its target T3, Carboxy-terminal domain RNA polymerase II polypeptide A small phosphatase 1 (Homo sapiens, UniProt Q9GZU7).
T3 sequence (Q9GZU7 whole entry): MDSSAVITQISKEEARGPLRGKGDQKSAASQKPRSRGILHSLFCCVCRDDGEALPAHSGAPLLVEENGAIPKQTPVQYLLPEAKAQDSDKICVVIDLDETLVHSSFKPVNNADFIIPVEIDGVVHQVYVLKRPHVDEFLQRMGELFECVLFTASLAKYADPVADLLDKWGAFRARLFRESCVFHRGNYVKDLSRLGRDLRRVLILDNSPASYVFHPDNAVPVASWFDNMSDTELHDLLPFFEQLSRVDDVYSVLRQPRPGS
Nature of the test: inhibitors of CTDSP1, concentration-response testing, biochemical assay, absorbance-based, actives from ultra-high-throughput screening (AID 540297). It counts as functional.

The target of another test is T4, Aminopeptidase N (Plasmodium falciparum FcB1/Columbia, UniProt O96935).
T4 sequence (O96935 whole entry): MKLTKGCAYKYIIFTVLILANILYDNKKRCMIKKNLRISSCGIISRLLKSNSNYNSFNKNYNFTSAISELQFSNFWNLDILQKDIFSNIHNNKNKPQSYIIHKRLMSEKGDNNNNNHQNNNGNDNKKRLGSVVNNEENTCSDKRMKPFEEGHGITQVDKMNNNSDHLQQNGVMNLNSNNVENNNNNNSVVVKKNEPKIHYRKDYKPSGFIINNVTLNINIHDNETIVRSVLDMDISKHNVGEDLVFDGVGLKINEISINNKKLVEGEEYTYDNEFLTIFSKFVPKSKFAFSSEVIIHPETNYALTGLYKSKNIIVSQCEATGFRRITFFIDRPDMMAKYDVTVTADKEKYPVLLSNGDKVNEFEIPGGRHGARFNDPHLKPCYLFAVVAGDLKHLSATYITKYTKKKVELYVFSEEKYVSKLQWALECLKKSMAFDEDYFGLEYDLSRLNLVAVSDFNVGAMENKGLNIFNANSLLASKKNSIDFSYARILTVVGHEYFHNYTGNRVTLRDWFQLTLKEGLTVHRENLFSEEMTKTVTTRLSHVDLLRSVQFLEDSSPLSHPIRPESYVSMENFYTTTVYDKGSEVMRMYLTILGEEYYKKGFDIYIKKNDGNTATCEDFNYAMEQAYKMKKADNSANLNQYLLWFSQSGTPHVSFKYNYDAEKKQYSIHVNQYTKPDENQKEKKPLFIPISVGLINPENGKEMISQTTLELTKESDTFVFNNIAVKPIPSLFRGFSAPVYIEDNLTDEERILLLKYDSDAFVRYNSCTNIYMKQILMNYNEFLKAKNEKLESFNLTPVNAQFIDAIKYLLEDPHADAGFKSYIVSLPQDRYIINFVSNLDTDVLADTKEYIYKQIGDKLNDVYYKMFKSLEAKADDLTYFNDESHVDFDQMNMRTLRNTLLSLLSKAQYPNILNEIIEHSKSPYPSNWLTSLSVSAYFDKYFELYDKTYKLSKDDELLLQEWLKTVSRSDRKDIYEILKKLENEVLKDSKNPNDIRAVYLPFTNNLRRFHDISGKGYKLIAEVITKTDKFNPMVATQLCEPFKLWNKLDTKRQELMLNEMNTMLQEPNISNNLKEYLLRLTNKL
Nature of the test: P. falciparum M1AAP inhibitors, biochemical, fluorogenic H-Leu-NHMec substrate, 1536-well (AID 1445). The arrangement: species or system Plasmodium falciparum 3D7, 3D7.

The target in test [9] is T5, Rac GTPase-activating protein 1 (Homo sapiens, UniProt Q9H0H5).
T5 sequence (Q9H0H5 whole entry): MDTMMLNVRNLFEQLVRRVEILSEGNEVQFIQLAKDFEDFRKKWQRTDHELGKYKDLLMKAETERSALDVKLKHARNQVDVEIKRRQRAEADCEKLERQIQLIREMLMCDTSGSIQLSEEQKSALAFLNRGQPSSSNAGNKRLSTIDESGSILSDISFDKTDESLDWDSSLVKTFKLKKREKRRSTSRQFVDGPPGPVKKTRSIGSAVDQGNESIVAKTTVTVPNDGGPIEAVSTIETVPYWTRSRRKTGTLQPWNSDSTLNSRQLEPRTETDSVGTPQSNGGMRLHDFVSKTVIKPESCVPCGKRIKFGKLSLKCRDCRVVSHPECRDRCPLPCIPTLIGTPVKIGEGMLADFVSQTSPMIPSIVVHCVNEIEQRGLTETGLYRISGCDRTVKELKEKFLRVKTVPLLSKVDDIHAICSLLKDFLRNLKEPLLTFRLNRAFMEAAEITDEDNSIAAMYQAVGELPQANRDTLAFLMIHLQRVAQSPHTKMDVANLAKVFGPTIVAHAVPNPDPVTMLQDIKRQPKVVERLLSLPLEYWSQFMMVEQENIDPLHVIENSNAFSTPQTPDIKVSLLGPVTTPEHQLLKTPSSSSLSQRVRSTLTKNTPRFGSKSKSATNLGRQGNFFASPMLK
Kind of test: MgcRacGAP GTPase-activating activity inhibitors, confirmation, biochemical, ADP Hunter fluorescence, primary and confirmatory (AID 624330). In kind it is functional.

The target in another test is Prothrombin (Bos taurus, UniProt P00735). Kind of test: thrombin inhibition, dose response, biochemical, fluorescence polarization, uHTS hits (AID 602369). In kind it is functional. A general note: In fluorescence polarisation assays a small probe gives low polarisation when free and higher when bound to something large.
Test [10] concerns the target 72 kDa type IV collagenase (Homo sapiens, UniProt P08253). Nature of the test: Dose Response validation of uHTS RPN11 inhibitor hits using a MMP-2 Fluorescence assay. In kind it is functional.
Test [11] concerns the target 26S proteasome non-ATPase regulatory subunit 14 (Homo sapiens, UniProt O00487). Nature of the test: inhibition of proteasome subunit RPN11 – biochemical, fluorescence polarization, uHTS hits, confirmation (AID 602368). In kind it is functional.
In a further test the target is Large T antigen (Simian virus 40, UniProt P03070). In kind it is functional, Betapolyomavirus macacae.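 Further: Confirmatory-stage PubChem screen for compounds that inhibit SV40 T antigen.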
A further test deals with Genome polyprotein (dengue virus type 2, UniProt P29990). Nature of the test: Dengue-2 NS5 methyltransferase inhibitors, primary screen, biochemical, confirmation dose response (AID 588689). In kind it is functional.
Test [12] is described as follows: Fluorescence-based cell-based high throughput dose response assay for inhibitors of the interaction of nucleotide-binding oligomerization domain containing 2 (NOD2) and the receptor-interacting serine-threonine kinase 2 (RIPK2). It counts as functional. To be noted: Homo sapiens.

Calls of active or inactive are those of the source.

Chain of Nuclear receptor subfamily 5 group A member 2 (O00482 whole entry): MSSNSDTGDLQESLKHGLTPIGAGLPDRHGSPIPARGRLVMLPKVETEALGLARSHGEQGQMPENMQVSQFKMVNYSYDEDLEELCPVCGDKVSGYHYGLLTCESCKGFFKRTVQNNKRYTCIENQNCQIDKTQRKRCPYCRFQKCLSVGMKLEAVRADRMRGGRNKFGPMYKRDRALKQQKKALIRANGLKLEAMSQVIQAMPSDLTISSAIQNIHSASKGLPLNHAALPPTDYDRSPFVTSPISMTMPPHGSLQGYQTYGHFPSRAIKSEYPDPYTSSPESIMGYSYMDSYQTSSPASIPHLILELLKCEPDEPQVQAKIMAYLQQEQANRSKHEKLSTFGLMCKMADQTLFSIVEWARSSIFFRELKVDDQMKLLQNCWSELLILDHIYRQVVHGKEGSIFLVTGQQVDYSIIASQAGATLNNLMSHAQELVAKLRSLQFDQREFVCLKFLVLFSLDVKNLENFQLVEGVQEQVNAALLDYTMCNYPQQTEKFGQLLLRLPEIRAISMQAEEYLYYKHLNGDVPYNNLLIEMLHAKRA
Chain of Steroidogenic factor 1 (Q13285 whole entry): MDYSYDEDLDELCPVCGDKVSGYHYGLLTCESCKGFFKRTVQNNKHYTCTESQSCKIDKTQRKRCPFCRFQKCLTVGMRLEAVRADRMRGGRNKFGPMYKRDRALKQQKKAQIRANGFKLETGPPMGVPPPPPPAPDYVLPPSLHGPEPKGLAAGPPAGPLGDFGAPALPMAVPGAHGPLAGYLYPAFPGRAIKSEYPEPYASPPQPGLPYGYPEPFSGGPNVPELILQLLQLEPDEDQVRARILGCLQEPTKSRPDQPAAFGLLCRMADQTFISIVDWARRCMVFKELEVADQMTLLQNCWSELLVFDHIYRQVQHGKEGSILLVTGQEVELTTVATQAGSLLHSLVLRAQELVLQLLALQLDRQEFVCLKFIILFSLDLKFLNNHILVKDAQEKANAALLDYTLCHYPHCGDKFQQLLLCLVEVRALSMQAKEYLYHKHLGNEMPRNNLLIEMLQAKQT
Chain of 72 kDa type IV collagenase (P08253 whole entry): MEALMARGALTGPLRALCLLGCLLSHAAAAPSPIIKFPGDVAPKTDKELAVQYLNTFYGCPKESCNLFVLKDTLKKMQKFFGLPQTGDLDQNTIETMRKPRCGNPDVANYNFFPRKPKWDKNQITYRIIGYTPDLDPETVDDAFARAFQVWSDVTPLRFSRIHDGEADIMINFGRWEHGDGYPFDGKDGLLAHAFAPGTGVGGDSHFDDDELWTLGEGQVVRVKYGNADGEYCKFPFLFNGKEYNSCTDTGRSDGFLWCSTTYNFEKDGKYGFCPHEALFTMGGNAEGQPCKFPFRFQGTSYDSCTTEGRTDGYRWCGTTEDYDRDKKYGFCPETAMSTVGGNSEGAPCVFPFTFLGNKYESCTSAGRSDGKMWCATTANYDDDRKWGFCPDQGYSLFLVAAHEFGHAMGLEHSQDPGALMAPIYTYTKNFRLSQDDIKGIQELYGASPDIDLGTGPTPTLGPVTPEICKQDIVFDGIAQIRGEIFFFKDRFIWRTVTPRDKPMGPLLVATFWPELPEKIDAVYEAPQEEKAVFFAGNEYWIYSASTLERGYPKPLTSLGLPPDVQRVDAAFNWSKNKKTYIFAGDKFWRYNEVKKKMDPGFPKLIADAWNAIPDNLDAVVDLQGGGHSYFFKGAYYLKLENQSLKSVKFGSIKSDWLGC
Chain of 26S proteasome non-ATPase regulatory subunit 14 (O00487 whole entry): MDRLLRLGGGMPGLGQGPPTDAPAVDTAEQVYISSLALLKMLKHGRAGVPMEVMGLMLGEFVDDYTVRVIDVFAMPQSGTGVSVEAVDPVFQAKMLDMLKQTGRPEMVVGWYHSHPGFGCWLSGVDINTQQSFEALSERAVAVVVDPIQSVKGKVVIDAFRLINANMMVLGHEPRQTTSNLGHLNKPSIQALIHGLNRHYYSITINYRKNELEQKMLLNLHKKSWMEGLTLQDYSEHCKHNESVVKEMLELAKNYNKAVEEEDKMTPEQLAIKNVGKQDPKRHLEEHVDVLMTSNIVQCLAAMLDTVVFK
Chain of Genome polyprotein (P29990 2492-3391 limits assumed): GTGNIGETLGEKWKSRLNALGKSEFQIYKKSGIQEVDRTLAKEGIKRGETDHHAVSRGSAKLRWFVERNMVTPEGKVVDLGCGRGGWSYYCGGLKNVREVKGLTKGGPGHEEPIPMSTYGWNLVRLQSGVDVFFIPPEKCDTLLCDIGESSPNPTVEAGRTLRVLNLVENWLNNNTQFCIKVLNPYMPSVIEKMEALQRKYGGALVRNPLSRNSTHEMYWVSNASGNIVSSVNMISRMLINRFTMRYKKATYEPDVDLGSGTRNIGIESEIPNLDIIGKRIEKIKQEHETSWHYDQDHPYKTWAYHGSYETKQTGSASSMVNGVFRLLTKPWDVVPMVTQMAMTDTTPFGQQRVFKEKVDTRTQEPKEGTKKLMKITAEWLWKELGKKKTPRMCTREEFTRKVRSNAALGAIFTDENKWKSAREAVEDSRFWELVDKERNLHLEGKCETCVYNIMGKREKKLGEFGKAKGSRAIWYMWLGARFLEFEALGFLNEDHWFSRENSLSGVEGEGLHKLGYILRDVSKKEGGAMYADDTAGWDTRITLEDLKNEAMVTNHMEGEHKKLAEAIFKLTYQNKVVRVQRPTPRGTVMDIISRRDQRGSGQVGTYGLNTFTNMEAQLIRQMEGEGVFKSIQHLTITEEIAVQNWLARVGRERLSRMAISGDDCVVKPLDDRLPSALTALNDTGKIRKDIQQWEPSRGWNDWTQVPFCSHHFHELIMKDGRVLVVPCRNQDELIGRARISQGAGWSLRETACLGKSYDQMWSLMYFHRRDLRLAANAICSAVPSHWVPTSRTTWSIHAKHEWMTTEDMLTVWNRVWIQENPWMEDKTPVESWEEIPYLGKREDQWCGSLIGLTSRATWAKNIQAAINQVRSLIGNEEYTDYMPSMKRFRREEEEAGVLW
Chain of Large T antigen (P03070 whole entry): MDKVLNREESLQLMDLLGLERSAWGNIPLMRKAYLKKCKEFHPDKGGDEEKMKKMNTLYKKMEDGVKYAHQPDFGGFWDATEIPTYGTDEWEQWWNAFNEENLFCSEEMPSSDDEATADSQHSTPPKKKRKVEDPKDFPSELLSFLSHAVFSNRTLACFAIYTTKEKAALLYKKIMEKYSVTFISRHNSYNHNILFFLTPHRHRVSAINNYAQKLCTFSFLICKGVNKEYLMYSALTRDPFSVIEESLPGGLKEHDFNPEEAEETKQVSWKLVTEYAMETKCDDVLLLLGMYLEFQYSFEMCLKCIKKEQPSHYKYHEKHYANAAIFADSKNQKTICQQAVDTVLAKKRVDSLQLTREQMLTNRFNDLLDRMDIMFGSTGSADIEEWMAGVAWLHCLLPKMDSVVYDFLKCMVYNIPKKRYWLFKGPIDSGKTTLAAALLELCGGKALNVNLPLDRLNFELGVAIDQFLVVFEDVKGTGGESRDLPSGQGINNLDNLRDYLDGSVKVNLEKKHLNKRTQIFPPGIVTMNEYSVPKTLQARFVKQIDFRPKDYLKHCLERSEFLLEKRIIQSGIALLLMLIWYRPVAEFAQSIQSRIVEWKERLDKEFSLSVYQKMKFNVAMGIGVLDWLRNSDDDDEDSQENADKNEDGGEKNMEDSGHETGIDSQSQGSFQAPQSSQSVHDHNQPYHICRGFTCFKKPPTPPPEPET

Turning to `O=C(Nc1nnc(S(=O)(=O)Nc2ccccc2)s1)c1ccccc1Cl`, in test [1], the EC50 was > 53 µM (inactive). Besides, the IC50 is < 0.368 µM (active) in test [2] and 7.38 µM (active) in [3].
With `O=C(COc1ccc2c3c(c(=O)oc2c1)CCCC3)NCCCN1CCOCC1`, the IC50 (at Steroidogenic factor 1; in [4]; in test [5]) was 35.9 µM (inactive) throughout.
For `Cc1n[nH]c(O)c1C(c1c(C)n[nH]c1O)c1cn(C)c2ccccc12`, the IC50 is 11.2 µM (active) in [6] and 11.9 µM (active) in test [7].
With `O=C(O)c1ccc(COc2ccccc2C=C2C(=O)c3ccccc3C2=O)cc1`, the EC50 in test [1] is 10 µM (active). The IC50 is 5.86 µM (active) in test [8]; 74.9 µM (active) at Aminopeptidase N; 85.9 µM (active) in test [9]; > 100 µM (inactive) on Prothrombin; > 100 µM (inactive) in [10]; 17.1 µM (active) in test [11]. Moreover, the IC50 was < 0.368 µM (active) in test [2], 35.2 µM (active) on Large T antigen, 6.33 µM (active) on Genome polyprotein and 1.47 µM (active) in test [3].
In the case of `O=C1/C(=C/c2ccccc2)CN(C(=O)CCN2CCOCC2)C/C1=C\c1ccccc1`, the IC50 in test [12] is 6.29 µM (active).
On to `C[C@H](CO)N1C[C@H](C)[C@H](CN(C)Cc2ccncc2)Oc2cc(-c3ccccc3F)ccc2S1(=O)=O`, for which the figures for the IC50 (at Steroidogenic factor 1; in test [4]; in test [5]) were 1.33 µM (active), 15.5 µM (inactive) and 1.33 µM (active), respectively.
